Reference: patent US7150876B2, “Methods for stabilizing ingredients within cosmetics, personal care and household products” (Merck Patent GmbH, priority 2004, dated 2006)

Assays:
[1] = Singlet oxygen quenching (RNO bleaching at 440 nm, methylene blue sensitizer, UV A); type: biochemical; conditions: for IC50% (μg/ml), singlet oxygen quenching ability: RNO bleaching at 440 nm, 20 min UV A; for Singlet oxygen scavenging behaviour: FIG. 3
Protocol: A solution of N,N-dimethyl-p-nitrosoaniline (RNO) and histidine and a known sensitizer (e.g. methylene blue) is exposed to UV A. Singlet oxygens generated under UV A induce a bleaching of RNO which can be measured spectrophotometrically at 440 nm. The efficiency of test products in terms of singlet oxygen scavenging is measured at 440 nm for various concentrations.
All measurements were performed at room temperature (24 C) with a Beckman Coulter DU-640 spectrophotometer at a scan speed of 120 nm/min with a spectral range from 300 to 700 nm.
150, Sigma-Aldrich • RNO (19 mg) dissolved in 50 ml of Buffer solution subsequent dilution by factor 25 in de-ionized water. • L-Histidine Solution (40 mM) • Mol. Wt. […] 320, Sigma-Aldrich • 5 mg are dissolved in distilled water (100 ml) subsequent dilution at 6.4 ml in 25 ml of de-ionized water. b) Antioxidant Solutions: • Ascorbic acid (0.5 mM) • Mol. Wt.
The stock solutions were added in an orderly manner with quantities according to the table below as to obtain a final total volume of 4.5 ml for each preparation. First, the RNO buffered solution was taken, followed by addition of L-Histidine and the sensitizer Methylene Blue. Then, the antioxidant solution was added and topped off to 4.5 ml total volume with buffer solution. This preparation was exposed to UV A radiation (˜35 W/m^2) for 20 min to generate singlet oxygens. The light absorption spectra were then recorded and the optical density measured at 440 nm (corresponding to RNO). The inverse of the light absorbances at 440 nm is then plotted as a function of the concentration in antioxidant.

[2] = Photostabilization of Guaiazulene in ethanolic solution under sun simulator; type: physicochemical; conditions: for Relative absorption of Guaiazulene at 600 nm (%): ethanolic solution, sun simulator
Protocol: (§1) In Solution: Solutions in ethanol are prepared at respective concentrations of photosensitive materials and photostabilizer (typically 1:1 to 1:5 in weight %). […] The amount of photosensitive materials remaining in solution is calculated from the ratio of their maximal absorption band (λmax), before and after irradiation.
(§2) Amount of energy: 10 mJoules/Cm^2=1 MED
Photostabilization Results of Guaiazulene in Ethanolic Solution

[3] = Color change of Menthyl anthranilate in solution under sun simulator; type: physicochemical; conditions: menthyl anthranilate:stabilizer 1:5, FIG. 2
Protocol: (§3) In Solution: Solutions in ethanol are prepared at respective concentrations of photosensitive materials and photostabilizer (typically 1:1 to 1:5 in weight %). Solutions are exposed to a sun simulator (754 W/m^2, 2 MED/h,) for various durations and light absorption spectra recorded for each sample at given times. The amount of photosensitive materials remaining in solution is calculated from the ratio of their maximal absorption band (λmax), before and after irradiation.
Color Change of Menthyl Anthranilate Under Sun Simulator With and Without Diethylhexyl Syringylidene Malonate in Solution

[4] = Photostability of β carotene in lotion at room temperature, visible light, one month; conditions: room temperature storage
[5] = Photostabilization and color change of Vanillin in ethanolic solution under sun simulator; type: physicochemical; conditions: for Color change of Vanillin in solution (new light absorption band around 390 nm, yellow color): with and without stabilizer, FIG. 1; for Relative absorption of Vanillin at 281 nm (%): ethanolic solution
Protocol: as §1, §2
Photostabilization Results of Vanillin in Ethanolic Solution
Color Change of Vanillin in Solution Under Sun Simulator With and Without Diethylhexyl Syringylidene Malorate in Solution
Photostabilization Results of Vanillin in Ethanolic Solution with isoamyl-alpha-acetyl-3,5-dimethoxy-4-hydroxy cinnamate

[6] = Photostability of β carotene in lotion under sun simulator; conditions: stabilizer 0.2%, β carotene 0.02%
[7] = Photostability of Guaiazulene in a shampoo formulation under sun simulator; type: physicochemical; conditions: stabilizer 0.1% in the shampoo
Protocol: In Formulation: Samples are prepared as ultrathin films between two quartz plates as to obtain a minimum of 90% light transmission over the entire spectrum range of non absorbing chromophores. For example, ingredients which absorb only in the UV will be tested in formulation to obtain a minimum of 90% light transmission over the visible range. Samples are then irradiated under sun simulator (754 W/m^2, typically 2 MED/h) for given times and light absorption spectra recorded at each time. The remaining percentage of photosensitive compounds is calculated from the light absorption maximum (λmax) of the corresponding peak in the absorption spectrum.
as §2
Formulation Used for the Study Described in Example-5
Procedure: Combine A and heat to 70–75° C., except for U-care JR-400. Disperse U-care JR-400 in A under agitation. Add ingredients of phase B one by one at 70° C. Add phase C at 40° C. Premix Phase D and add to batch at 40° C. At 35° C. add phase E. Adjust pH (˜6.5) and viscosity with phase F.

[8] = Photostabilization of natural Tocopherols in ethanolic solution under sun simulator; type: physicochemical; conditions: stabilizer 0.05%
Protocol: as §3, §2
Photostabilization Results of Natural Tocopherols in Ethanolic Solution

SMILES: Cc1c(C)c2c(c(C)c1O)CCC(C)(C(=O)O)O2 (stereo not drawn) [Trolox C, S-hydroxy-tetramethylchroman carboxylic acid, reference compound]
- IC50% (μg/ml), singlet oxygen quenching ability [1]: 88 µg/mL

SMILES: Cc1ccc(C(C)C)cc2c(C)ccc1-2 [Guaiazulene]
- Relative absorption of Guaiazulene at 600 nm (%) ([2]; 0 MED): 100%
- Relative absorption of Guaiazulene at 600 nm (%) ([2]; 2 MED): 83%
- Relative absorption of Guaiazulene at 600 nm (%) ([2]; 5 MED): 43%
- Relative absorption of Guaiazulene at 600 nm (%) ([2]; 10 MED): 6%
- Guaiazulene lost when exposed to solar simulator ([2]; total energy of 100 mJ/cm^2): ~90%

SMILES: CC1CCC(C(C)C)C(OC(=O)c2ccccc2N)C1 (stereo not drawn) [Menthyl anthranilate]
- Color change of Menthyl anthranilate (new light absorption band around 390 nm, yellow color) [3]: a new light absorption band for menthyl antranillate appears around 390 nm

SMILES: O=C1O[C@H]([C@@H](O)CO)C(O)=C1O [Ascorbic acid, reference compound]
- Singlet oxygen scavenging behaviour [1]: pro-oxidant
- IC50% (μg/ml), singlet oxygen quenching ability [1]: Pro-oxidant

SMILES: CCOS(=O)(=O)[O-].CCOS(=O)(=O)[O-].CC[N+](C)(C)CCCNC(=O)C(=Cc1cc(OC)c(O)c(OC)c1)C(=O)NCCC[N+](C)(C)CC [Eusolex HP ™, Bis-N-[3′-(N′,N′-Dimethylethylammonium)propyl]-3,5-dimethoxy-4-hydroxy benzylidene malonamide bis ethyl sulfate]
- Singlet oxygen scavenging behaviour [1]: efficient singlet oxygen scavengers, better than Vitamin E
- IC50% (μg/ml), singlet oxygen quenching ability [1]: 104 µg/mL

SMILES: CC1=C(/C=C/C(C)=C/C=C/C(C)=C/C=C/C=C(C)/C=C/C=C(C)/C=C/C2=C(C)CCCC2(C)C)C(C)(C)CCC1 [β-carotene]
- Stability of β-carotene in ambient light [4]: degrades in ambient light at room temperature storage

SMILES: CCCCC(CC)COC(=O)C(=Cc1cc(OC)c(O)c(OC)c1)C(=O)OCC(CC)CCCC (stereo not drawn) [Diethylhexyl syringylidene malonate, Di-2-ethylhexyl 3,5 dimethoxy 4 hydroxy benzylidene malonate]
- Color change of Vanillin in solution (new light absorption band around 390 nm, yellow color) [5]: does not appear
- Effect of stabilizer on photostability of β carotene in lotion [6]: clear improvement in the photostability of β carotene
- Singlet oxygen scavenging behaviour [1]: efficient singlet oxygen scavengers, better than Vitamin E
- IC50% (μg/ml), singlet oxygen quenching ability [1]: 80 µg/mL
- Effect of stabilizer on photostability of Guaiazulene in shampoo [7]: clear improvement in the photostability of Guaiazulene
- Color change of Menthyl anthranilate (new light absorption band around 390 nm, yellow color) [3]: prevents any alteration/degradation of the fragrance
- Effect of stabilizer on photostability of Tocopherols in solution [8]: clear improvement in the photostability of Tocopherols

SMILES: COc1cc(C=C(C(C)=O)C(=O)OCCC(C)C)cc(OC)c1O [Eusolex ASA ™, Isoamyl alpha acetyl-3,5 dimethoxy 4 hydroxy benzylidene malonate]
- Efficiency as an antioxidant (ranking) [1]: best efficiency as an antioxidant
- Singlet oxygen scavenging behaviour [1]: efficient singlet oxygen scavengers, better than Vitamin E
- IC50% (μg/ml), singlet oxygen quenching ability [1]: 61 µg/mL

SMILES: COc1cc(C=O)ccc1O [Vanillin]
- Relative absorption of Vanillin at 281 nm (%) ([5]; 0 MED): 100%
- Relative absorption of Vanillin at 281 nm (%) ([5]; 2 MED): 45%
- Relative absorption of Vanillin at 281 nm (%) ([5]; 5 MED): 40%
- Relative absorption of Vanillin at 281 nm (%) ([5]; 10 MED): 36%
- Color change of Vanillin in solution (new light absorption band around 390 nm, yellow color) [5]: a new light absorption band appears around 390 nm
